Experiments:
[1] = Cytotoxicity of LRAs in A3.01 cells; type: cell-based; conditions: human, day 7
Procedure: (§1) To determine the cytotoxicity of LRAs, A3.01, and U937 cells (5 × 10^5 cells/ml), which are the parental cells for ACH-2 and U1 cells, respectively, were cultured in the presence or absence of LRAs. After 7 days, cell viability was examined using the Cell Counting Kit-8 assay (Dojindo, Kumamoto, Japan) according to the manufacturer’s instructions. The numbers of living cells after drug treatment were measured and compared to those in untreated cells and are presented as a percentage relative to the control.

[2] = Cytotoxicity of LRAs in U937 cells; type: cell-based; conditions: human, day 7
Procedure: as §1

[3] = tested on: HIV-1 latently infected ACH-2 cells; assay: HIV-1 latency reversal, p24 antigen in supernatant, ACH-2 cells; type: cell-based; conditions: Human immunodeficiency virus 1, ACH-2, 48 h
Procedure: (§2) The reactivation of HIV-1 from latently infected cells was determined by intracellular p24 protein expression and quantification of p24 antigen in the supernatant (ACH-2 and U1 cells), or by changes in intracellular green fluorescent protein (GFP) expression (J-Lat 10.6 cells). J-Lat ([Jordan et al., 2003]), ACH-2, or U1 cells (5 × 10^5 cells/ml) were seeded in 96-well plates and incubated with different drug concentrations for 24 h to collect the cells. The supernatant was collected after 48 h. The increase in supernatant p24 antigen levels was measured using a Lumipulse G1200 (FUJIREBIO, Tokyo, Japan). J-Lat cells (5 × 10^5 cells/ml) were placed in 48-well plates and incubated with different drug concentrations for 24 h. Intracellular p24 protein expression and GFP-positive cells were analyzed by flow cytometry.

J-Lat 10.6 cells = type: cell-based, HIV-1
Procedure: The reactivation of HIV-1 from latently infected cells was determined by intracellular p24 protein expression and quantification of p24 antigen in the supernatant (ACH-2 and U1 cells), or by changes in intracellular green fluorescent protein (GFP) expression (J-Lat 10.6 cells). […] The supernatant was collected after 48 h. The increase in supernatant p24 antigen levels was measured using a Lumipulse G1200 (FUJIREBIO, Tokyo, Japan). […] Intracellular p24 protein expression and GFP-positive cells were analyzed by flow cytometry.
Differences between groups were analyzed for statistical significance using unpaired t-tests. Statistical significance was set at p < 0.05. Statistical analyses were performed using GraphPad Prism version 8 (GraphPad Software, La Jolla, CA, United States). CompuSyn software, based on the quantitative analysis of dose-effect relationships between multiple drugs by Chou and Talalay, was utilized to determine the synergism or antagonism of drug combinations ([Chou and Talalay, 1984]). To confirm synergy, this software calculates combination index (CI) values, which further assist in determining the nature of the combination compared to single drug effects. A CI value <1 indicates synergistic effects.

ACH-2 cells = assay: Active caspase-3 by flow cytometry in ACH-2 cells; type: cell-based; conditions: 10 µM, 24 h
Procedure: The amount of intracellular HIV-1 p24 and the active form of caspase-3 were determined by flow cytometry, as previously described ([Matsuda et al., 2015], [2019]). In brief, ACH-2 and U1 cells (2.5 × 10^5 cells/ml) were fixed with 1% paraformaldehyde/PBS for 20 min and permeabilized with Flow Cytometry Perm Buffer (TONBO Biosciences, San Diego, CA, United States). After 5 min of incubation at room temperature, the cells were stained with FITC anti-HIV-1 p24 (24-4) monoclonal antibody (mAb; Santa Cruz Biotechnology, Dallas, TX, United States) or Alexa Fluor 647-conjugated anti-active caspase-3 (C92-605) mAb (BD Pharmingen, San Diego, CA, United States) for 30 min on ice. For T cell activation and exhaustion marker staining, PBMCs from healthy donors separated by the above density gradient centrifugation method were incubated with fixable viability stain Ghost Dye 780 (TONBO Biosciences) for 30 min on ice. […] Next, the cells were analyzed using BD FACSVerse (BD Biosciences). […] The collected data were analyzed using FlowJo software (Tree Star, San Carlos, CA, United States).

BALB/c mice = assay: In vivo acute toxicity (24 h) in BALB/c mice; conditions: intraperitoneal, 100 μg/kg–10 mg/kg
Source text: BALB/c mice were purchased from Charles River Laboratories Japan, Inc. (Yokohama, Japan). Female mice at 5 weeks of age were used for the experiments. The mice were housed and monitored in our animal research facility according to the institutional guidelines. All experimental procedures and protocols were approved by the Institutional Animal Care and Use Committee of Kumamoto University.

[4] = tested on: HIV-1 latently infected ACH-2 cells; assay: Intracellular HIV-1 p24 by flow cytometry in ACH-2 cells; type: cell-based; conditions: 24 h
Procedure: as §2
(§3) The amount of intracellular HIV-1 p24 and the active form of caspase-3 were determined by flow cytometry, as previously described ([Matsuda et al., 2015], [2019]). In brief, ACH-2 and U1 cells (2.5 × 10^5 cells/ml) were fixed with 1% paraformaldehyde/PBS for 20 min and permeabilized with Flow Cytometry Perm Buffer (TONBO Biosciences, San Diego, CA, United States). After 5 min of incubation at room temperature, the cells were stained with FITC anti-HIV-1 p24 (24-4) monoclonal antibody (mAb; Santa Cruz Biotechnology, Dallas, TX, United States) or Alexa Fluor 647-conjugated anti-active caspase-3 (C92-605) mAb (BD Pharmingen, San Diego, CA, United States) for 30 min on ice. For T cell activation and exhaustion marker staining, PBMCs from healthy donors separated by the above density gradient centrifugation method were incubated with fixable viability stain Ghost Dye 780 (TONBO Biosciences) for 30 min on ice. The cells were then stained with Brilliant Violet 510 anti-human CD3 (UCHT1) mAb (BioLegend), FITC anti-human CD4 (RPA-T4) mAb (TONBO Biosciences), PE-Cy7 anti-human CD8a (RPA-T8) mAb (TONBO Biosciences), PerCP-Cy5.5 anti-human CD38 (HB-7) mAb (BioLegend), PE anti-human CD69 (FN50) mAb (BioLegend), or Alexa Fluor 647 anti-human CD279/PD-1 (EH12.1) mAb (BD Biosciences, San Jose, CA, United States) for 30 min on ice. Next, the cells were analyzed using BD FACSVerse (BD Biosciences). In the analysis, unstained cells were used as a negative control to set the gating for each experiment. The collected data were analyzed using FlowJo software (Tree Star, San Carlos, CA, United States).

[5] = tested on: PBMCs from healthy donors; assay: Acute cytotoxicity in primary cells (fixable viability dye, flow cytometry); type: cell-based
Procedure: For T cell activation and exhaustion marker staining, PBMCs from healthy donors separated by the above density gradient centrifugation method were incubated with fixable viability stain Ghost Dye 780 (TONBO Biosciences) for 30 min on ice. […] Next, the cells were analyzed using BD FACSVerse (BD Biosciences). In the analysis, unstained cells were used as a negative control to set the gating for each experiment. The collected data were analyzed using FlowJo software (Tree Star, San Carlos, CA, United States).
The ratio of living cells was calculated for fixable viability dye negative cell populations by flow cytometry. Data are shown as means ± SDs of three independent experiments.

[6] = tested on: CD8+PD1+CD38+ primary T cells; assay: Immune exhaustion markers, CD8+PD1+CD38+ primary T cells; type: cell-based, human; conditions: PBMCs from healthy donors, 24 h
Procedure: as §3

## CCCC(CCC)C(=O)OCC1(CO)CC(=C(C)C)C(=O)O1 (centres unmarked) [YSE028]
[1]
  CC50 at 7 days: > 100 µM
[2]
  CC50 at 7 days: > 100 µM
[3]
  EC50: 0.87 µM
J-Lat 10.6 cells; J-Lat 10.6 cells, 100–400 nM, 24 h
  number of GFP+ cells: 5.8%
J-Lat 10.6 cells; J-Lat 10.6 cells, 24 h, GFP-positive cells
  LRA activity in the presence of 10% mouse serum versus 10% FBS: drastically decreased
J-Lat 10.6 cells; J-Lat cells, exposure 1 h, wash-out, analysed after 24 h
  reactivation after short-term exposure: successfully reactivated
ACH-2 cells
  caspase-3 activation: 17.85%
BALB/c mice
  survival: all of them survived
[4]; 0.1 µM
  intracellular p24-positive live cells (flow cytometry quadrant): 0.889
[4]; 1 µM
  intracellular p24-positive live cells (flow cytometry quadrant): 62
[4]; 10 µM
  intracellular p24-positive live cells (flow cytometry quadrant): 79.1
[5]; YSE028 10 μM with JQ1 1 μM, Supplementary Figure S3A
  toxicity of LRAs in combination in primary cells: did not cause increased toxicity in combination
[5]; up to 100 μM, 24 h
  acute toxicity in primary cells: did not show acute toxicity
[6]
  increase in CD8+ PD1+ CD38+ T cells: only moderate

— publication PMC8010149, “A Therapeutic Strategy to Combat HIV-1 Latently Infected Cells With a Combination of Latency-Reversing Agents Containing DAG-Lactone PKC Activators” (Frontiers in Microbiology, 2021)
